Assay results as given in a compilation of properties of binary mixtures (doi:10.1007/s10973-016-5820-0).

Assay: xn = mol fraction of the nth substance listed
Conditions: 100 kPa

CCCC[n+]1ccn(C)c1.F[B-](F)(F)F + O=C1CCCCC1
x1 = 1
Conditions	speed of sound [m/s]
293.15 K	1578.1
298.15 K	1565.5
303.15 K	1554.1
308.15 K	1542.3

O=C1CCCCC1 + CCCC[n+]1ccn(C)c1.F[B-](F)(F)F
speed of sound [m/s]
Conditions	293.15 K	298.15 K	303.15 K	308.15 K
x2 = 0	1431.2	–	1395.1	1375.1
x2 = 0.0736	1425.9	1409.5	1390.7	–
x2 = 0.1128	1424.7	1408.5	–	–
x2 = 0.1597	1424.6	–	1390.2	1371.2
x2 = 0.2045	–	1409.9	1391.8	1373
x2 = 0.2459	–	1412.1	1394.2	1375.6
x2 = 0.2933	1431.3	–	–	1379.7
x2 = 0.3481	1436.6	1421.1	1403.7	–
x2 = 0.3956	1442.2	1426.9	1409.8	1392
x2 = 0.4429	1448.6	1433.5	1416.7	1399.3
x2 = 0.4937	1456.5	1441.6	1425.2	1408.1
x2 = 0.5344	1463.5	1448.7	1432.6	1415.8
x2 = 0.5938	1474.6	1460.1	1444.5	1428.2
x2 = 0.6557	1487.3	1473.1	–	1442.4
x2 = 0.7028	1497.8	1483.8	1469.3	1454
x2 = 0.7409	1506.7	1493	–	–
x2 = 0.7973	1520.6	1507.2	1493.7	1479.5
x2 = 0.8564	1536.1	1523	1510.2	1496.7
x2 = 0.9047	1549.6	1536.7	1524.4	–
